Source: PubChem BioAssay (NCI)
“And” between values parts separate entries of the source, which are not always exact repeats. Equal entries are not always repeated.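 All cell lines were grown in 96-well plates and treated with compound for 48 hours. GI50 is the concentration that inhibits growth by half. TGI: total growth inhibition.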

Columns and labels:
Assay in all cases: NCI-60 cell line screen, 48 h
CAKI-1 renal = test system: CAKI-1 renal
HOP-62 NSCLC = test system: HOP-62 NSCLC
HT29 colon = test system: HT29 colon
LOX IMVI melanoma = test system: LOX IMVI melanoma
MCF7 breast = test system: MCF7 breast
OVCAR-3 ovarian = test system: OVCAR-3 ovarian
SK-OV-3 ovarian = test system: SK-OV-3 ovarian
SNB-19 CNS = test system: SNB-19 CNS
U251 CNS = test system: U251 CNS
SF-539 CNS = test system: SF-539 CNS

Structure (SMILES)	GI50 (CAKI-1 renal) [µM]	TGI (CAKI-1 renal) [µM]	GI50 (HOP-62 NSCLC) [µM]	TGI (HOP-62 NSCLC) [µM]	GI50 (HT29 colon) [µM]	TGI (HT29 colon) [µM]	GI50 (LOX IMVI melanoma) [µM]	TGI (LOX IMVI melanoma) [µM]	GI50 (MCF7 breast) [µM]	TGI (MCF7 breast) [µM]	GI50 (OVCAR-3 ovarian) [µM]	TGI (OVCAR-3 ovarian)	GI50 (SK-OV-3 ovarian) [µM]	TGI (SK-OV-3 ovarian) [µM]	GI50 (SNB-19 CNS) [µM]	TGI (SNB-19 CNS) [µM]	GI50 (U251 CNS) [µM]	TGI (U251 CNS) [µM]	TGI (SF-539 CNS)	GI50 (SF-539 CNS) [µM]
COc1ccc(Nc2cc(C)nc(N3CCN(c4ccnc5cc(Cl)ccc45)CC3)n2)cc1	2.71	> 100	3.89	> 100	2.83	8.11	2.39	5.96	0.284	4.51	2.31	6.15 µM	4.81	> 100	4.83	> 100	3.06	36.6	–	–
CCCCCCC(/C=N/O)C(C)(O)CCC (stereo not drawn)	–	> 100	–	> 100	–	> 100	–	> 100	–	–	–	> 100 µM	–	–	–	> 100	–	> 100	> 100 µM	–
O=C(O)C1=C(C(=O)Nc2ccc(NC(=O)C3=C(C(=O)O)C4C=CC3C4)cc2)C2C=CC1C2	–	> 100	–	> 100	–	> 100	–	> 100	–	–	–	> 100 µM	–	> 100	–	> 100	–	> 100	> 100 µM	–
Nn1c(N=Nc2c(O)[nH]c3c(Cl)cc(Cl)cc23)n[nH]c1=S	–	> 100	–	> 100	–	> 100	–	> 100	–	–	–	> 100 µM	–	> 100	–	> 100	–	> 100	> 100 µM	–
O=C1c2nc3n(c2C(=O)c2c1nc1n2CCC1)CCC3	–	23.9	5.19	15.9	5.14	10.8	3.75	13.4	–	–	3.42	9.74 µM and 7.87 µM	–	92.2	–	27.9	–	34	8.77 µM and 13.5 µM	–
COC(=O)C1=C(c2ccc3c(c2)OCO3)OC(c2cc(OC)c(OC)c(OC)c2)C1 (stereo not drawn)	–	> 100	–	> 100	–	4.63	–	> 100	–	–	–	4.26 µM	–	8.09	–	> 100	–	> 100	87.8 µM	–
O=C(O)c1ccccc1NC(=O)C1CCCCC1	–	–	–	> 100	–	> 100	–	> 100	–	–	–	> 100 µM	–	> 100	–	> 100	–	> 100	> 100 µM	–
COC(=O)C1=CC2OC1(C)CCC2=O (stereo not drawn)	–	> 100	–	> 100	–	> 100	–	> 100	–	–	–	> 100 µM	–	> 100	–	> 100	–	> 100	> 100 µM	–
COC(=O)[C@@H](C)C[C@H](Cc1ccccc1)NC(=O)c1csc([C@@H](C[C@H](C(C)C)N(C)C(=O)[C@H](C)NC(=O)[C@H]2CCCCN2C)OC(C)=O)n1	–	–	3.27	> 25	0.816	> 25	1.74	> 25	0.437	> 25	0.551	> 25 µM	11	> 25	0.901	> 25	1.58	> 25	20.6 µM	1.42
O=C1OC(c2ccccc2)=N/C1=C\c1cccc(F)c1	–	> 100	–	92.6	–	> 100	–	45.6	–	> 100	–	> 100 µM	–	> 100	–	> 100	–	> 100	–	–
COc1ccc2nc(NC(=O)C(=O)C(C#N)c3ccc(Cl)c(Cl)c3)sc2c1 (stereo not drawn)	–	> 100	–	> 100	–	> 100	–	> 100	–	–	–	> 100 µM	–	> 100	–	> 100	–	> 100	> 100 µM	–
O=C1NC(=O)C2C1N(Cc1ccccc1)C(=O)N2Cc1ccccc1 (stereo not drawn)	–	> 100	–	> 100	–	> 100	–	> 100	–	–	–	> 100 µM	–	> 100	–	> 100	–	> 100	> 100 µM	–
CC1=CC(=O)N(c2c(C)cccc2Cl)C(C)N1 (stereo not drawn)	–	> 100	–	> 100	–	> 100	–	> 100	–	–	–	> 100 µM	–	> 100	–	> 100	–	> 100	> 100 µM	–
O=[N+]([O-])c1ccc(Cl)cc1C1SCc2nc3ccccc3n21 (stereo not drawn)	–	> 100	–	> 100	–	> 100	–	–	–	–	–	> 100 µM	–	> 100	–	> 100	–	> 100	> 100 µM	–
COc1ccc2c(c1OC)C(=O)c1cnccc1C2=O	–	> 100	–	> 100	–	> 100	–	> 100	–	–	–	> 100 µM	–	> 100	–	> 100	–	> 100	> 100 µM	–
COc1cc(Cl)cc(-c2nn(-c3cccc(NC(=O)Nc4ccc(Cl)c(C(F)(F)F)c4)c3)cc2-c2ccncc2)c1	0.816	9.43	2.12	6.32	1.14	4.38	–	–	1.01	11	0.451	2.66 µM	3.15	9.85	2.93	17.6	0.729	2.11	3.35 µM	1.5
O=C(CC1C(=O)Nc2ccccc2S1=O)Nc1ccc(Cl)cc1 (stereo not drawn)	–	> 100	–	> 100	–	> 100	–	> 100	–	–	–	> 100 µM	–	63.9	–	> 100	–	> 100	51.1 µM	–
COc1ccc(OC)c(Nc2nc(-c3c(C)nc4sccn34)cs2)c1	–	–	8.46	63.4	> 100	> 100	> 100	> 100	1.95	> 100	92.7	> 100 µM	24.6	> 100	41.4	> 100	> 100	> 100	> 100 µM	48.8
O=C1C2Nc3ccccc3SC2C(=O)N1c1ccccc1C(F)(F)F (stereo not drawn)	–	> 100	–	> 100	–	> 100	–	> 100	–	–	–	60.6 µM	–	> 100	–	> 100	–	45.2	41 µM	–
